29 compounds from ChEMBL document CHEMBL1126187, “New bronchodilators. 3. Imidazo[4,5-c][1,8]naphthyridin-4(5H)-ones” (J Med Chem, 1992) can be followed below.

Structures are written as SMILES.

The species named for series [1] is Cavia porcellus. The series can be described thus: Schultz-Dale (SD) reaction in tracheal strip isolated from passively sensitized guinea pigs. It counts as functional.
Series [2] has as its system Cavia porcellus. The experiment in a line: Mean collapse time in antigen induced bronchospasm in passively sensitized guinea pigs at 10 mg/kg peroral dose. It counts as functional. The note with it: route oral.
In a further series the test system is Mus musculus. The experiment in a line: Acute lethal toxicity in mice on peroral administration. It counts as organism-based. As to conditions: in vivo, po.
In series [3] the target is Phosphodiesterase 4 (Canis familiaris). The series can be described thus: Inhibition of Canine Tracheal Smooth Muscle PDE 4.
In series [4] the test system is Cavia porcellus. The series can be described thus: Mean collapse time in antigen induced bronchospasm in passively sensitized guinea pigs at 0.1 mg/kg peroral dose. It counts as functional. The note with it: route oral.
Series [5] concerns Cavia porcellus. The experiment in a line: Mean collapse time in antigen induced bronchospasm in passively sensitized guinea pigs at 0.50 mg/kg peroral dose. It counts as functional. The note with it: dose 0.5 mg/kg; route oral.
The subject of series [6] is Cavia porcellus. The experiment in a line: Mean collapse time in antigen induced bronchospasm in passively sensitized guinea pigs at 1 mg/kg peroral dose. It counts as functional. As to conditions: route oral.
Series [7] concerns Cavia porcellus. The series can be described thus: Mean collapse time in antigen induced bronchospasm in passively sensitized guinea pigs at 50 mg/kg peroral dose. It counts as functional. As to conditions: route oral.
The subject of series [8] is Cavia porcellus. The experiment in a line: Mean collapse time in antigen induced bronchospasm in passively sensitized guinea pigs at 5 mg/kg peroral dose. It counts as functional. The note with it: route oral.
The species entered for series [9] is Cavia porcellus. The experiment in a line: Effect on LTD4 induced contraction of guinea pig tracheal strips. It counts as functional. The note with it: Trachea.
The species entered for series [10] is Cavia porcellus. The experiment in a line: Effect on carbachol induced contraction of guinea pig tracheal strips. It counts as functional. As to conditions: Trachea.
For series [11], the species on record is Cavia porcellus. The experiment in a line: Effect on histamine induced contraction of guinea pig tracheal strips. It counts as functional. As to conditions: Trachea.
Series [12] concerns the target Phosphodiesterase 4 (Canis familiaris). The series can be described thus: Inhibition of Canine Tracheal Smooth Muscle PDE 4. This is another data set of the same source.
Series [13] relates to Cavia porcellus. The experiment in a line: Mean collapse time in antigen induced bronchospasm in passively sensitized guinea pigs at 25 mg/kg peroral dose. It counts as functional. The note with it: route oral.

Broadly, the IC50 is the concentration that inhibits the measured activity by half. For `Cn1cnc2c(=O)n(-c3ccccc3)c3ncccc3c21`, in the series filed under Cavia porcellus [1], the IC50 is more than 30 µM.
Turning to `Oc1c2ncnc-2c2ccccc2n1-c1ccccc1`, the IC50 in the series filed under Cavia porcellus [1] is more than 30 µM.
Turning to `CCCCn1c(=O)c2c(ncn2C)c2cccnc21`, in the series with Cavia porcellus [2], the MCT was 215 s. In addition, the IC50 in the series filed under Cavia porcellus [1] amounted to 3.57 µM; in series [3], 3.6 µM. In the series with Mus musculus, the MLD was determined as 200 mg/kg.
For `COc1cccc(-n2c(O)c3ncnc-3c3cccnc32)c1`, the IC50 in the series filed under Cavia porcellus [1] is more than 30 µM.
The same measure, in the same setting: under `Oc1c2ncnc-2c2cccnc2n1-c1cccc(Cl)c1` stands more than 30 µM; under `CCOC(=O)c1ccc(-n2c(O)c3ncnc-3c3cccnc32)cc1`, more than 30 µM; under `Oc1c2nnnc-2c2cccnc2n1-c1ccccc1`, more than 30 µM.
On to `Oc1c2nc(-c3ccccc3)nc-2c2cccnc2n1-c1ccccc1`, for which, in the series filed under Cavia porcellus [1], the IC50 was more than 30 µM.
On to `CCN(CC)CCCn1cnc2c3cccnc3n(-c3ccccc3)c(=O)c21`, for which, in the series listed under Cavia porcellus [1], the half-maximal inhibitory concentration (IC50) was more than 30 µM.
With `O=c1c2c(ncn2CCCN2CCOCC2)c2cccnc2n1-c1ccccc1`, the IC50 in the series listed under Cavia porcellus [1] was more than 30 µM.
Consider `CCn1cnc2c3cccnc3n(-c3ccccc3)c(=O)c21`, for which the results for the 50% inhibitory concentration (IC50) (in the series filed under Cavia porcellus [1]; in [3]) were 0.47 µM and 2 µM, respectively. This compound also yielded an MLD in the series with Mus musculus of 100 mg/kg.
Consider `Cn1cnc2c3cccnc3n(-c3ccccc3)c(=O)c21`, for which, in the series with Cavia porcellus [2], the MCT was 543 s. Further, the IC50 came out at 0.22 µM in the series filed under Cavia porcellus [1] and 6.6 µM in series [3]. The same compound yielded an MLD in the series with Mus musculus of 100 mg/kg.
For `CC(C)n1cnc2c3cccnc3n(-c3ccccc3)c(=O)c21`, the figures for the IC50 (in the series listed under Cavia porcellus [1]; in series [3]) were 4.98 µM and 2.5 µM, respectively. In addition, in the series on Mus musculus, the MLD worked out at 200 mg/kg.
Regarding `CC(C)Cn1cnc2c3cccnc3n(-c3ccccc3)c(=O)c21`, in the series on Cavia porcellus [2], the MCT is reported as 551 s. In addition, the IC50 in the series filed under Cavia porcellus [1] was 6.78 µM; in series [3], 0.15 µM. The MLD in the series with Mus musculus amounted to 300 mg/kg.
Take `CCCCn1c(=O)c2ncn(C)c2c2cccnc21`: the MCT with Cavia porcellus [2] worked out at 335 s. In addition, the IC50 in the series listed under Cavia porcellus [1] turned out to be 13 µM. In the series on Mus musculus, this compound registered an MLD of 300 mg/kg.
For the compound `Cc1cccc(-n2c(O)c3ncnc-3c3cccnc32)c1`, the IC50 in the series listed under Cavia porcellus [1] is more than 30 µM.
On to `Cc1ccc(-n2c(O)c3ncnc-3c3cccnc32)cc1`, for which the IC50 in the series filed under Cavia porcellus [1] was more than 30 µM.
Turning to `CCOC(=O)c1cccc(-n2c(O)c3ncnc-3c3cccnc32)c1`, the IC50 in the series filed under Cavia porcellus [1] is more than 30 µM.
With `CCCCn1c(O)c2ncnc-2c2cccnc21`, in the series filed under Cavia porcellus [1], the IC50 was more than 30 µM.
`Cc1nc2c(O)n(-c3ccccc3)c3ncccc3c-2n1`: the IC50 in the series filed under Cavia porcellus [1] was more than 30 µM.
On the same count and under the same terms, the same measure for `COc1ccc(-n2c(O)c3ncnc-3c3cccnc32)cc1`: more than 30 µM; for `O=C(O)Cn1cnc2c3cccnc3n(-c3ccccc3)c(=O)c21`: more than 30 µM; for `CCCCCCn1cnc2c3cccnc3n(-c3ccccc3)c(=O)c21`: more than 30 µM.
On to `CC(C)n1cnc2c(=O)n(-c3ccccc3)c3ncccc3c21`, for which the IC50 in the series filed under Cavia porcellus [1] was more than 30 µM.
Turning to `Oc1c2ncnc-2c2cccnc2n1-c1ccccc1`, the MCT came out at 301 s with Cavia porcellus [4]; 410 s in the series with Cavia porcellus [5]; 397 s in the series on Cavia porcellus [6]; 491 s in the series on Cavia porcellus [7]; 483 s with Cavia porcellus [8]; 457 s with Cavia porcellus [2]. Further, the IC50 in the series filed under Cavia porcellus [1] stood at 2.18 µM; in the series listed under Cavia porcellus [9], 3.04 µM; in the series listed under Cavia porcellus [10], 10.2 µM; in the series listed under Cavia porcellus [11] it was 5.72 µM; in series [12], 12 µM. The MLD in the series on Mus musculus is more than 300 mg/kg.
On to `CCCn1cnc2c3cccnc3n(-c3ccccc3)c(=O)c21`, for which, in the series with Cavia porcellus [2], the MCT is listed as 505 s. In addition, the IC50 is 8.3 µM in the series filed under Cavia porcellus [1] and 0.52 µM in [3]. In addition, the MLD in the series on Mus musculus was found to be 200 mg/kg.
Consider `CCCCn1cnc2c3cccnc3n(-c3ccccc3)c(=O)c21`, for which, in the series filed under Cavia porcellus [1], the IC50 was more than 30 µM.
As for `COc1ccc(C2CNC(=O)C2)cc1OC1CCCC1` (stereo not given) [ROLIPRAM], the IC50 in the series filed under Cavia porcellus [1] stood at 0.34 µM.
Turning to `Cn1c(=O)c2nc[nH]c2n(C)c1=O.O` [THEOPHYLLINE], the MCT was determined as 389 s in the series with Cavia porcellus [13], 414 s with Cavia porcellus [7] and 343 s with Cavia porcellus [2].
